From patent publication US11053204B2, “Pyrimidinyloxy benzene derivatives as herbicides” (FMC Corporation, priority 2015, dated 2021)

Assays:
Assay in all cases: Test C postemergence, plant response rating
Type in all cases: in vivo
[1] = tested on: galium (catchweed bedstraw, Galium aparine); conditions: Galium, post-emergence
Summary of the method: (§1)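 Preemergence: seeds sown in loam–sand blend or silt loam and sprayed with test chemicals in a non-phytotoxic surfactant-containing solvent. Postemergence: potted plants at 2–18 cm (1–4-leaf stage) sprayed with the same formulation. After 13–15 d in greenhouse, visual rating versus controls on 0 (no effect) to 100 (complete control) scale.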

[2] = tested on: ragweed (common ragweed, Ambrosia elatior); conditions: Ambrosia artemisiifolia, post-emergence
Summary of the method: as §1

[3] = tested on: blackgrass (Alopecurus myosuroides); conditions: Alopecurus myosuroides, post-emergence
Summary of the method: as §1

[4] = tested on: waterhemp (common waterhemp, Amaranthus rudis); conditions: for Plant response rating, Waterhemp: scale 0 to 100; for Waterhemp plant response rating: scale 0 to 100 (0 no effect, 100 complete control)
Summary of the method: as §1

[5] = tested on: barnyardgrass (Echinochloa crus-galli); conditions: Echinochloa crus-galli, post-emergence
Summary of the method: as §1

[6] = tested on: lambsquarters (Chenopodium album); conditions: Chenopodium album, post-emergence
Summary of the method: as §1

[7] = tested on: oat, wild (wild oat Avena fatua); conditions: Avena fatua, post-emergence
Summary of the method: as §1

[8] = tested on: wheat (winter wheat, Triticum aestivum); conditions: Triticum aestivum, post-emergence
Summary of the method: as §1

[9] = tested on: ryegrass, Italian (Italian ryegrass, Lolium multiflorum); conditions: Lolium multiflorum, post-emergence
Summary of the method: as §1

[10] = tested on: velvetleaf (Abutilon theophrasti); conditions: Abutilon theophrasti, post-emergence
Summary of the method: as §1

corn (Zea mays) = conditions: Zea mays, post-emergence
Summary of the method: as §1

soybean (Glycine max) = conditions: Glycine max, post-emergence
Summary of the method: as §1

[11] = tested on: crabgrass, large (large crabgrass, Digitaria sanguinalis); conditions: Digitaria sanguinalis, post-emergence
Summary of the method: as §1

kochia (Kochia scoparia) = conditions: Bassia scoparia, post-emergence
Summary of the method: as §1

[12] = tested on: nutsedge, yellow (yellow nutsedge, Cyperus esculentus); conditions: Cyperus, post-emergence
Summary of the method: as §1

[13] = tested on: oilseed rape (Brassica napus); conditions: Brassica napus, post-emergence
Summary of the method: as §1

[14] = 62 g ai/ha, scale 0 to 100 (0 no effect, 100 complete control)
[15] = 125 g ai/ha, scale 0 to 100 (0 no effect, 100 complete control)

**Q.** What does the source list for `O=C(OCCCC(F)(F)F)c1c(Br)cccc1Oc1ncc(Cl)cn1` [Compound 20, 4,4,4-trifluorobutyl 2-bromo-6-[(5-chloro-2-pyrimidinyl)oxy]benzoate]?
**A.** pest or weed control at 16 g/ha ([1]; 16 g ai/ha, scale 0 to 100): 70%; pest or weed control at 31 g/ha ([1]; 31 g ai/ha, scale 0 to 100): 60%; pest or weed control at 62 g/ha [1, 14]: 80%; pest or weed control at 125 g/ha [1, 15]: 98%; pest or weed control at 16 g/ha ([2]; 16 g ai/ha, scale 0 to 100): 30%; pest or weed control at 31 g/ha ([2]; 31 g ai/ha, scale 0 to 100): 50%; pest or weed control at 62 g/ha [2, 14]: 55%; pest or weed control at 125 g/ha [2, 15]: 60%; pest or weed control at 16 g/ha ([3]; 16 g ai/ha, scale 0 to 100): 5%; pest or weed control at 31 g/ha ([3]; 31 g ai/ha, scale 0 to 100): 5%; pest or weed control at 62 g/ha [3, 14]: 5%; pest or weed control at 125 g/ha [3, 15]: 10%; Plant response rating, Waterhemp ([4]; 16 g ai/ha): 75; Plant response rating, Waterhemp ([4]; 31 g ai/ha): 95; Waterhemp plant response rating ([4]; 62 g ai/ha): 90; Waterhemp plant response rating ([4]; 125 g ai/ha): 98; pest or weed control at 16 g/ha ([5]; 16 g ai/ha, scale 0 to 100): 10%; pest or weed control at 31 g/ha ([5]; 31 g ai/ha, scale 0 to 100): 10%; pest or weed control at 62 g/ha [5, 14]: 10%; pest or weed control at 125 g/ha [5, 15]: 20%; pest or weed control at 16 g/ha ([6]; 16 g ai/ha, scale 0 to 100): 65%; pest or weed control at 31 g/ha ([6]; 31 g ai/ha, scale 0 to 100): 80%; pest or weed control at 62 g/ha [6, 14]: 70%; pest or weed control at 125 g/ha [6, 15]: 85%; pest or weed control at 16 g/ha ([7]; 16 g ai/ha, scale 0 to 100): 0%; pest or weed control at 31 g/ha ([7]; 31 g ai/ha, scale 0 to 100): 0%; pest or weed control at 62 g/ha [7, 14]: 5%; pest or weed control at 125 g/ha [7, 15]: 5%; plant injury at 16 g/ha ([8]; 16 g ai/ha, scale 0 to 100): 0%; plant injury at 31 g/ha ([8]; 31 g ai/ha, scale 0 to 100): 0%; plant injury at 62 g/ha ([8]; 62 g ai/ha, scale 0 to 100 (0 no effect, 100 complete control), read-out: Wheat plant response rating): 5%; plant injury at 125 g/ha [8, 15]: 5%; pest or weed control at 16 g/ha ([9]; 16 g ai/ha, scale 0 to 100): 0%; pest or weed control at 31 g/ha ([9]; 31 g ai/ha, scale 0 to 100): 5%; pest or weed control at 62 g/ha [9, 14]: 10%; pest or weed control at 125 g/ha [9, 15]: 5%; pest or weed control at 16 g/ha ([10]; 16 g ai/ha, scale 0 to 100): 20%; pest or weed control at 31 g/ha ([10]; 31 g ai/ha, scale 0 to 100): 50%; pest or weed control at 62 g/ha ([10]; 62 g ai/ha, scale 0 to 100 (0 no effect, 100 complete control), read-out: Velvetleaf plant response rating): 40%; pest or weed control at 125 g/ha [10, 15]: 70%; Corn plant response rating (crop injury, 0 = no effect, 100 = complete kill) at 16 g/ha (corn (Zea mays); 16 g ai/ha, scale 0 to 100): 5%; Corn plant response rating (crop injury, 0 = no effect, 100 = complete kill) at 31 g/ha (corn (Zea mays); 31 g ai/ha, scale 0 to 100): 10%; plant injury at 62 g/ha (corn (Zea mays); [14]): 10%; plant injury at 125 g/ha (corn (Zea mays); [15]): 20%; plant injury at 16 g/ha (soybean (Glycine max); 16 g ai/ha, scale 0 to 100): 25%; plant injury at 31 g/ha (soybean (Glycine max); 31 g ai/ha, scale 0 to 100): 65%; plant injury at 62 g/ha (soybean (Glycine max); [14]): 55%; plant injury at 125 g/ha (soybean (Glycine max); [15]): 60%; pest or weed control at 16 g/ha ([11]; 16 g ai/ha, scale 0 to 100): 10%; pest or weed control at 31 g/ha ([11]; 31 g ai/ha, scale 0 to 100): 10%; pest or weed control at 62 g/ha [11, 14]: 15%; pest or weed control at 125 g/ha [11, 15]: 15%; pest or weed control at 16 g/ha (kochia (Kochia scoparia); 16 g ai/ha, scale 0 to 100): 95%; pest or weed control at 31 g/ha (kochia (Kochia scoparia); 31 g ai/ha, scale 0 to 100): 95%; pest or weed control at 62 g/ha (kochia (Kochia scoparia); [14]): 100%; pest or weed control at 125 g/ha (kochia (Kochia scoparia); [15]): 100%; pest or weed control at 16 g/ha ([12]; 16 g ai/ha, scale 0 to 100): 0%; pest or weed control at 31 g/ha ([12]; 31 g ai/ha, scale 0 to 100): 5%; pest or weed control at 62 g/ha [12, 14]: 5%; pest or weed control at 125 g/ha [12, 15]: 10%; plant injury at 16 g/ha ([13]; 16 g ai/ha, scale 0 to 100): 50%; plant injury at 31 g/ha ([13]; 31 g ai/ha, scale 0 to 100): 50%; plant injury at 62 g/ha [13, 14]: 50%; plant injury at 125 g/ha [13, 15]: 60%
